From patent publication US10227332B2, “T-type calcium channel modulator and uses thereof” (UTI Limited Partnership, priority 2014, dated 2019)

Experiments:
[1] = tested on: mice with partial sciatic nerve injury; assay: Partial sciatic nerve injury (PNI)-induced neuropathic pain, mechanical hyperalgesia; format: in vivo, mouse; details: 30 mg/kg, i.p.; after treatment
Excerpt: (§1) During experiments, all efforts were made to minimize animal suffering according to the policies and recommendations of the International Association for the Study of Pain and all protocols used were approved by the Institutional Animal Care and Use Committee. For all experiments, either adult male C57BL/6J (wild-type) or CACNA1H knockout (Cav3.2 null) mice (20-25 g) purchased from Jackson Laboratories were used. There were a maximum of five mice per cage (30×20×15 cm) and access to food and water was unlimited. Temperature was kept at 23±1° C. on a 12 h light/dark cycle (lights on at 7:00 a.m.). Intraperitoneal (i.p.) injections of drugs were a constant volume of 10 ml/kg body weight. Intrathecal (i.t.) injections used volumes of 10 μl and were performed using the method described previously and carried out routinely in our laboratory. All drugs were dissolved in 1% or less DMSO, whereas control animals received PBS+1% DMSO. For each test, a different group of mice were used and only one experiment per mouse was performed.
Before surgery, mice were anaesthetised with isoflurane (5% induction, 2.5% maintenance). […] Mechanical hyperalgesia was then evaluated in a time-dependant manner.
Mechanical hyperalgesia responses were recorded immediately before the surgeries (baselines), 14 days after the surgeries (0) and at various time points (0.5, 1, 2, 3 h) after treatment. […]

wild type mice = assay: Open-field test (locomotor activity); format: in vivo, mouse; details: 30 mg/kg, i.p.
Excerpt: as §1
Briefly, the apparatus consisted of a wooden box measuring 40×60×50 cm with a glass front wall. The floor was divided into 12 equal squares and the entire apparatus was placed in a sound free room. Animals were placed in the rear left square and left to explore freely and the number of squares crossed with all paws (crossing) in a 6 minute timeframe was counted. […]

[2] = tested on: wild-type mice, formalin-induced pain; assay: Formalin test (acute nociceptive and inflammatory phases); format: in vivo, mouse; details: for inhibition of pain response time, first phase: formalin first phase; for inhibition of pain response time, second phase: formalin second phase
Excerpt: as §1
Before experiments were performed, mice were left to acclimatize for at least 60 minutes. Animals were then injected intraplantarily (i.pl.) in the ventral surface of the right hindpaw with 20 μl of a formalin solution (1.25%) made up in PBS. Following i.pl. injections of formalin, individual animals were placed immediately into observation chambers and monitored from 0-5 min (acute nociceptive phase) and 15-30 min (inflammatory phase).

hCB2 = hCB2 (Homo sapiens (Human), UniProt P34972); assay: Radioligand competitive binding assay, CB2 receptor (NIMH PDSP); details: means of three experiments run in triplicate
Excerpt: (§2) The compounds was screened using whole-cell voltage clamp techniques for their ability to mediate tonic block of transiently expressed hCav3.2 channels (FIG. 1). Next, radioligand binding assays were used to assess the affinities of these compounds for both CB1 and CB2 receptors (Table 1).
(§3) CB1 and CB2 radioligand binding data were obtained using National Institute of Mental Health (NIMH) Psychoactive Drug Screening Program (PDSP) resources as described earlier.

rCB1 = rCB1 (Rattus norvegicus (Rat), UniProt P20272); assay: Radioligand competitive binding assay, CB1 receptor (NIMH PDSP); details: means of three experiments run in triplicate
Excerpt: as §2, §3

[3] = 1-10 μg/i.t., 20 minutes before
[4] = 10-100 mg/kg, i.p., 30 minutes prior

SMILES	duration of attenuation of mechanical hyperalgesia [1] [h]	locomotor activity in open-field test (wild type mice)	locomotor activity in open-field test (wild type mice; listed as compound 9)	inhibition of pain response time, first phase [2, 3] [%]	inhibition of pain response time, second phase [2, 3] [%]	inhibition of pain response time, first phase [2, 4] [%]	inhibition of pain response time, second phase [2, 4] [%]	hCB2 Ki (hCB2)	rCB1 Ki (rCB1)
CCCCCn1c2ccccc2c2cc(C(=O)NCC3CCN(CC(=O)NC(C)(C)C)CC3)ccc21 [Compound 9, N-((1-(2-(tert-butylamino)-2-oxoethyl)piperidin-4-yl)methyl)-9-pentyl-9H-carbazole-3-carboxamide]	> 3	no significant motor deficits	did not significantly affect locomotor activity	61±8	76±10	47±2	66±48		
CCCCCn1c2ccccc2c2cc(C(=O)NCC3CCNCC3)ccc21 [Compound 7, 9-Pentyl-N-(piperidin-4-ylmethyl)-9H-carbazole-3-carboxamide]								n.b.	n.b.
